# From article PMC4084896 (PLoS ONE, 2014)
# Key:
# Assay type in all cases: cell-based
# [1] = MTT cytotoxicity test in primary human hepatocytes; conditions: primary human hepatocytes, read-out: viability, % of control value
# Excerpt: (§1) A stably transfected gene reporter cell line AZ-AHR, derived from human hepatoma HepG2 cells transfected with a construct containing several AhR binding sites upstream of a luciferase reporter gene, was used for assessment of AhR transcriptional activity. A stably transfected gene reporter cell line AZ-GR, derived from human cervix carcinoma HeLa cells transfected with a construct containing several GR response elements upstream of a luciferase reporter gene, was used for assessment of GR transcriptional activity. Cells were incubated for 24 h with tested compounds and/or vehicle (DMSO; 0.1% v/v), in the presence or absence of TCDD (5 nM; AZ-AHR cells) or DEX (100 nM; AZ-GR cells). After the treatments, cells were lysed and luciferase activity was measured. In parallel, cell viability was determined by conventional MTT test.
# (§2) The cells were treated for 24 h with (+)-KET, (−)-KET and commercial rac-KET (1 µM, 30 µM, 50 µM), and with TCDD (5 nM) and vehicle (DMSO; 0.1% V/V). […] In the cytotoxicity assay, we found all forms of KET highly toxic against human hepatocytes at the concentration 50 µM.
# [2] = tested on: primary human hepatocytes; assay: MTT cytotoxicity test in primary human hepatocytes; conditions: 50 µM, 24 h
# Excerpt: as §1, §2
# [3] = tested on: C. albicans 1; assay: MIC assessment, microdilution; conditions: 48 h, 37°C, MFC same as MIC
# Protocol: (§3) Antifungal activity was assessed using the standard microdilution method determining the minimum inhibitory concentrations (MICs) of the tested samples leading to inhibition of yeast growth. Disposable microtiter plates were used for the tests. The samples were diluted in brain heart infusion broth (HiMedia). […] C. albicans, C. krusei, C. tropicalis and C. parapsilosis. […] Subsequently, 100 µL were transferred into the first microplate well and serially diluted by a factor of 2. The prepared microplates were inoculated with a standard amount of the tested Candida spp. – the inoculum density in a well was equal to 10^5 CFU/mL. […] The minimum fungicidal concentration (MFC) is the minimum concentration of the sample required to kill the yeast after a defined period of incubation. The MFCs were determined by the inoculation method. With an applicator, 10 µL were transferred from the microplate wells with defined concentrations of the tested sample and inoculated onto Sabouraud agar (Trios). The MFC was determined as the lowest concentration that inhibited the visible growth of the used yeast. For growth curve assessment, the samples were serially diluted in 96-well microtiter plates. […] Absorbance (630 nm) was measured every hour during 24 hours and the obtained values were used to plot growth curves
# [4] = tested on: C. albicans 978; assay: MIC assessment, microdilution; conditions: 48 h, 37°C, MFC same as MIC
# Protocol: as §3
# [5] = tested on: C. tropicalis 5; assay: MIC assessment, microdilution; conditions: 48 h, 37°C, MFC same as MIC
# Protocol: as §3
Structure (SMILES),"viability at 24 h, 50 µM [1] [%]","viability, % of control value [2] [%]",MIC/MFC [3] [µM],MIC/MFC [4] [µM],MIC/MFC [5] [µM]
"CC(=O)N1CCN(c2ccc(OCC3COC(Cn4ccnc4)(c4ccc(Cl)cc4Cl)O3)cc2)CC1 (racemic) [rac-KET, ketoconazole]",46,,,,
"CC(=O)N1CCN(c2ccc(OC[C@H]3CO[C@](Cn4ccnc4)(c4ccc(Cl)cc4Cl)O3)cc2)CC1 [(+)-KET, (2R,4S)-(+)-KET]",,15,25,25,3.13
